Measurements as given in patent publication US7628987B2, “Vectors derived from antibodies for transferring substances into cells” (Institut Pasteur, priority 1997, dated 2009).
No end group written: not given here.

How the values were obtained:
PV1/Mahoney = type: cell-based, polio virus type 1; details: peptide 25 μg/ml, day 5
HSV-1 TK^+ virus = test: microbe, parasite or virus in culture; type: cell-based, Herpes Virus Simplex type I; details: HSV1 TK^+
PV1/Sabin = type: cell-based, polio virus type 1; details: PV1/Sabin, peptide 25 μg/ml, day 5
HSV-1 TK^− virus = test: microbe, parasite or virus in culture; type: cell-based, Herpes Virus Simplex type I; details: HSV1 TK^−
cells in culture = test: Cell penetration of polypeptide-streptavidin vectors coupled to enzymes; details: 2 hours of culture, complete culture medium
PtK2 fibroblasts = test: Study of the penetration of biotinylated polypeptides into cells (peroxidase coloration); type: cell-based; details: after 1 hour of culture, biotinylated polypeptide 5-20 μg/ml
Description: Cultured PtK2 fibroblasts seeded the day before in an amount of 5×10^4 cells per well onto glass sheets, are incubated at 37° C., 1-18 hours in complete RPMI 1640 culture medium (or DMEM) (10% foetal calf serum, 2 mM L-glutamine and 1 mM of sodium pyruvate) containing a biotinylated polypeptide of the invention (5-20 μg/ml) The cells were then washed with PBS and fixed with 2% of p-formaldehyde at 4° C. for 10 minutes then washed with PBS. The cells were then incubated with a solution of streptavidin conjugated with 5 μg/ml of peroxidase in PBS for 30 minutes, then washed with PBS and incubated in the peroxidase cytochemical substrate (diaminobenzidine+H2O2). After washing, the cells were examined microscopically.

## (K)19-AISRGGGYSYYLDTVKRTARATWDWFAY (KKKKKKKKKKKKKKKKKKKAISRGGGYSYYLDTVKRTARATWDWFAY) [K19PC2.1]
PV1/Mahoney
  LOG (TITER/ML): 9.05
  TITER REDUCTION FACTOR: 4
HSV-1 TK^+ virus; added H0, 5 μ/well
  CPE inhibition (AI): 69
HSV-1 TK^+ virus; added H + 1, 5 μ/well
  CPE inhibition (AI): 37
HSV-1 TK^+ virus; added H − 1, 5 μ/well
  CPE inhibition (AI): 8
HSV-1 TK^+ virus; added H − 2, 5 μ/well
  CPE inhibition (AI): 1
PV1/Sabin
  LOG (TITER/ML): 8.6
  TITER REDUCTION FACTOR: 8
HSV-1 TK^− virus; added H0, 5 μ/well
  CPE inhibition (AI): 81
HSV-1 TK^− virus; added H0, 10 μ/well
  CPE inhibition (AI): 92
HSV-1 TK^− virus; added H + 1, 5 μ/well
  CPE inhibition (AI): 26
HSV-1 TK^− virus; added H − 1, 5 μ/well
  CPE inhibition (AI): 72
HSV-1 TK^− virus; added H − 2, 5 μ/well
  CPE inhibition (AI): 100

## streptavidin: control protein in native form
Cells in culture
  intracellular detection of the coupled enzymes: no intracellular coloration was observed

## VAYISRGGVSTYYSDTVKGRFTRQKYNKRA [pF4.1]
PtK2 fibroblasts
  penetration into cells (peroxidase coloration): penetrated massively and rapidly into the cells
